Data as given in PubChem BioAssay (NCI).
“And” between values parts separate entries of the source, which are not always exact repeats. Equal values may be shown once.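 How tested: cells in 96-well plates exposed to compound for 48 hours at five concentrations. GI50 = concentration required for 50% inhibition of growth. TGI: total growth inhibition.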

How the values were obtained:
Assay in all cases: DTP human tumour cell line panel, 48 h
[1] = tested on: A549 NSCLC
[2] = tested on: BT-549 breast
[3] = tested on: HOP-92 NSCLC
[4] = tested on: HS 578T breast
[5] = tested on: K-562 leukemia
[6] = tested on: MDA-MB-435
[7] = tested on: SK-MEL-2 melanoma
[8] = tested on: SW-620 colon
[9] = tested on: OVCAR-8 ovarian
[10] = tested on: UACC-257 melanoma

Row | SMILES | TGI [1] | TGI [2] | TGI [3] | TGI [4] [µM] | TGI [5] | TGI [6] | TGI [7] | TGI [8] | TGI [9] | TGI [10] | GI50 [1] | GI50 [3] | GI50 [7] | GI50 [10]
1 | OCC1CCCCCCCCCCC12SCCCS2 (stereo not given) | > 100 µM | > 100 µM | > 100 µM | > 100 | > 100 µM | > 100 µM | > 100 µM | > 100 µM | – | – | – | – | – | –
2 | Nc1ccc2nc(-c3ccccn3)c(-c3ccccn3)nc2c1 | > 100 µM | > 100 µM | > 100 µM | > 100 | > 100 µM | > 100 µM | > 100 µM | > 100 µM | > 100 µM | > 100 µM | – | – | – | –
3 | Brc1ccc(CCNCCN2CCCCC2)cc1 | 30 µM | 29.4 µM | 23.5 µM | 38.1 | > 100 µM | 18.2 µM | 34.5 µM | 31.1 µM | 30.5 µM | 28.3 µM | – | – | – | –
4 | CC1=C2C(=O)NN=C2CCN1c1ccc(Br)cc1 | > 100 µM | 75.1 µM | > 100 µM | > 100 | – | > 100 µM | > 100 µM | > 100 µM | > 100 µM | > 100 µM | – | – | – | –
5 | c1ccc2c(c1)OC(N1CCCC1)c1cnc(N3CCCC3)nc1-2 (stereo not given) | > 100 µM | 60.9 µM | 47.3 µM | 89.7 | > 100 µM | > 100 µM | – | > 100 µM | > 100 µM | 40 µM | – | – | – | –
6 | CN(CCC#N)c1ccc(/C=C2\SC(=S)NC2=O)cc1 | > 100 µM | 79.2 µM | > 100 µM | > 100 | > 100 µM | > 100 µM | > 100 µM | > 100 µM | > 100 µM | > 100 µM | – | – | – | –
7 | COCOC1/C=C/CCCC#C[C@H](C)C(=O)CC1 (stereo not given in full) | 21.1 µM | 27.1 µM | 19.2 µM | 46.4 | 5.28 µM | 19.5 µM | 31.3 µM | 5.64 µM | 38 µM | 17.8 µM | – | – | – | –
8 | CCOC(=O)CNC(=O)C(CSCc1ccc(Br)cc1)NC(=O)CCC(N)C(=O)OCC (stereo not given) | > 50 µM | > 50 µM | > 50 µM | > 50 | > 50 µM | > 50 µM | > 50 µM | > 50 µM | > 50 µM | > 50 µM | – | – | – | –
9 | CC(=O)OCC1OC(OC(C)(C)CC/C=C(\C)[C@@H]2C/C=C(\C)CC/C=C(\C)CC2)C(O)C(O)C1OC(C)=O (stereo not given in full) | > 100 µM and 36 µM | 88.6 µM and 34.8 µM | > 100 µM and 35 µM | 30.5 | 61.4 µM and > 100 µM | > 82.5 µM and 38.8 µM | > 100 µM and 29.9 µM | > 31.6 µM and 50.7 µM | 82.3 µM and 43.5 µM | > 100 µM and 38.5 µM | > 65.2 µM and 16.2 µM | > 81.2 µM and 17.5 µM | > 64.3 µM and 16.4 µM | 99.3 µM and 19.1 µM
10 | CSc1nc(Cl)c2c(n1)Sc1nc3cc4c(cc3n1C2O)OCCO4 (stereo not given) | 14 µM | 23.3 µM | 4.41 µM | 23.6 | 17.6 µM | > 100 µM | 29.2 µM | 25.2 µM | 3.03 µM | 36.1 µM | – | – | – | –
